Consider one sequence from patent US20260256670A1, “COMPOSITION CONTAINING PEPTIDES HAVING SKIN-LIGHTENING EFFECT” (REMEDI CO., LTD., priority 2022, published 2026).

The subject of the data set is HaCaT cells. The data set is described as follows: Cytotoxicity evaluation (CCK8 assay). It counts as cell-based. The settings on record: serum-free medium, 24 hours. How it is done: HaCaT cells and B16F10 cells were cultured in a cell culture medium supplemented with 10% of fetal bovine serum (FBS) and antibiotic solution (100 units/ml penicillin, 100 μg/ml of streptomycin) in DMEM medium. The cells were cultured under conditions maintained at 37° C., 95% humidity, and 5% CO2, and when the cells were 70-80% adhered to the culture dish, they were treated with trypsin-EDTA and subcultured. HaCaT cells were distributed and cultured from Professor Tae-Yoon Kim of the College of Medicine, The Catholic University of Korea, and B16F10 cells were distributed and cultured from the Korean Cell Line Bank.
To evaluate the toxicity of RMNE1 in HaCaT skin cells, 3×10^4 of HaCaT cells were attached to a 96-well plate 12 hours ago. Thereafter, the cells were washed using serum-free DMEM medium and then treated with RMNE1 peptide at different concentrations in the serum-free medium. After 24 hours, the cells were washed a total of three times with serum-free medium, and then cell activity was measured using the CCK8 assay.
(In general: Tetrazolium dyes change colour on reduction, which living cells bring about.)

Ends that are not written are not given here.

As to “DEQERRRRRGRTRVRSE [RMNE1, DEQERRRRRGRTRVRSE]”, the cytotoxicity result is recorded as “low cytotoxicity”.
